Entries after “also recorded” stand apart in the source; their conditions may differ.
Key:
[1] = system: bacterial (S. aureus) biofilm and fungal biofilm (C. albicans); assay: Biofilm disruption assay, bacterial and fungal taken together; format: cell-based
Protocol: (§1) Two types of biofilm assays were performed: an inhibition assay and a disruption assay. The inhibition assay assesses the compound's ability to prevent biofilm development, while the disruption assay assesses the compound's ability to break up an existing mature biofilm.
(§2) All bacterial biofilm solutions were prepared in Tryptic Soy Broth (TSB), supplemented with 1% glucose (henceforth referred to as TSB-G). All subsequent procedures were performed in a manner that maintained sterility. A solution of each amino acid or an amino acid derivative to be tested was prepared in weight to volume concentrations ranging from 0.1-5.0%. Amino acids and amino acid derivatives were also tested in combinations. Compound solutions were homogenized with gentle agitation in the dark (4° C., 24 hours) before use.
(§3) 32 Amino acids and 2 amino acid derivatives of the amino acid serine that occur freely in human blood were tested. […] 31 of the 32 amino acids that were tested were the L-Isomers. Glycine has no stereoisomers. The 2 amino acid derivatives, ethanolamine and phosphoethanolamine were also tested. All biofilm assays were performed using 384-well non-tissue culture-treated polystyrene plates. The fungal species tested are as follows: Candida albicans, Candida guilliermondii, Candida parapsilosis, Candida glabrata, Candida tropicalis and Candida dubliniensis. The bacterial species tested are as follows: Staphylococci (standard wild type and methicillin-resistant strain USA300), Escherichia coli, Pseudomonas aeruginosa and Staphylococcus epidermidis.
(§4) Fungal strains were streaked on Yeast Peptone Dextrose (YPD) agar plates and incubated at 30° C. for 48 hours. A single colony from each strain to be tested was inoculated into YPD broth and grown for 12 hours at 30° C., shaking at 225 rpm. […] The cells were allowed to adhere to the plate for 90 minutes at 37° C. with shaking (350 rpm). […] The plate was further incubated for 24 hours at 37° C. with shaking (350 rpm). Media was carefully aspirated and the biofilm was measured by optical density at 600 nm. […] The cells were allowed to adhere to the plate for 90 minutes at 37° C. with shaking (350 rpm). […] The plate was further incubated for 24 hours at 37° C. with shaking (350 rpm). […] The plate was further incubated for 24 hours at 37° C. with shaking (350 rpm). Media was carefully aspirated, and the biofilm was measured by optical density at 600 nm.
(§5) Bacterial strains were streaked on Blood Agar plates (5% sheep blood in Tryptic Soy Broth) and incubated at 37° C. for 24 hours. A single colony from each strain to be tested was inoculated in a TSB broth and grown for 12 hours, at 37° C. with shaking (225 rpm). For the bacterial biofilm inhibition assays, 1 μL of saturated overnight cell culture was added to either 80 μL of TSB-G, or TSB-G supplemented with the amino acid compound solution to be tested, in a 384-well plate. The cells were allowed to adhere to the plate for 60 minutes at 37° C. without shaking. The media was carefully aspirated and 80 μL of TSB-G, or TSB-G supplemented with the amino acid compound solution was added to the plate. The plate was further incubated for 24 hours at 37° C. without shaking. Media was carefully aspirated and the biofilm was measured by optical density at 600 nm. Eight or twelve replicates were performed for each tested condition and the reported values are normalized to the control (TSB-G media only). For the bacterial biofilm disruption assays, 80 µL of TSB-G was added to the plate, along with 1 μL of overnight cell culture. The cells were allowed to adhere to the plate for 60 minutes at 37° C. with no shaking. The media was carefully aspirated and 80 μL of TSB-G was added to the plate. The plate was further incubated for 24 hours at 37° C. with no shaking. Media was carefully aspirated from the mature biofilm and 80 μL of TSB-G, or TSB-G supplemented with the amino acid to be tested, was gently added to the plate.

bacterial biofilm = assay: In vitro testing on bacterial biofilm (inhibition and/or disruption); format: cell-based; details: in vitro testing
[2] = system: fungal biofilm (C. albicans); assay: Fungal biofilm disruption assay; format: cell-based, Candida albicans
Protocol: as §1, §2, §3, §4

[3] = system: bacterial (S. aureus) biofilm; assay: Bacterial biofilm disruption assay; format: cell-based, Staphylococcus aureus
Protocol: as §1, §2, §3
Bacterial strains were streaked on Blood Agar plates (5% sheep blood in Tryptic Soy Broth) and incubated at 37° C. for 24 hours. A single colony from each strain to be tested was inoculated in a TSB broth and grown for 12 hours, at 37° C. with shaking (225 rpm). For the bacterial biofilm inhibition assays, 1 μL of saturated overnight cell culture was added to either 80 μL of TSB-G, or TSB-G supplemented with the amino acid compound solution to be tested, in a 384-well plate. The cells were allowed to adhere to the plate for 60 minutes at 37° C. without shaking. The media was carefully aspirated and 80 μL of TSB-G, or TSB-G supplemented with the amino acid compound solution was added to the plate. The plate was further incubated for 24 hours at 37° C. without shaking. Media was carefully aspirated and the biofilm was measured by optical density at 600 nm. Eight or twelve replicates were performed for each tested condition and the reported values are normalized to the control (TSB-G media only). For the bacterial biofilm disruption assays, 80 µL of TSB-G was added to the plate, along with 1 μL of overnight cell culture. The cells were allowed to adhere to the plate for 60 minutes at 37° C. with no shaking. The media was carefully aspirated and 80 μL of TSB-G was added to the plate. The plate was further incubated for 24 hours at 37° C. with no shaking. Media was carefully aspirated from the mature biofilm and 80 μL of TSB-G, or TSB-G supplemented with the amino acid to be tested, was gently added to the plate. The plate was further incubated for 24 hours at 37° C. without shaking. Media was aspirated and the biofilm was measured by optical density at 600 nm. Twelve replicates were performed for each tested condition and the reported values are normalized to the control (TSB-G media only).

[4] = system: bacterial (S. aureus) biofilm and fungal biofilm (C. albicans); assay: Biofilm inhibition assay, bacterial and fungal taken together; format: cell-based
[5] = system: fungal biofilm (C. albicans); assay: Fungal biofilm inhibition assay; format: cell-based, Candida albicans
Protocol: as §1, §2, §3, §4

[6] = system: bacterial (S. aureus) biofilm; assay: Bacterial biofilm inhibition assay; format: cell-based, Staphylococcus aureus
fungal biofilm = assay: In vitro testing on fungal biofilm (inhibition and/or disruption); format: cell-based; details: in vitro testing
Protocol: as §1, §2, §3, §4

[7] = system: bacterial and fungal biofilm; assay: In vitro testing on bacterial and fungal biofilm (assay not told apart); format: cell-based; details: for effect on bacterial and fungal biofilm (in words): in vitro testing; for concentration of maximum (ideal) antibiofilm effect: tested on its own, without glycerol
Protocol: as §1, §2, §3, §4, §5

[8] = Table D, bacterial and fungal biofilm
[9] = Table F, in the presence of a sufficient concentration of glycerol

Structure (SMILES) | Reduce Both (dots: Disruption Biofilm Assay) [1, 8] | Reduce Both (dots: Disruption Biofilm Assay) [1, 9] | effect on bacterial biofilm (in words) (bacterial biofilm) | Reduce or Inhibit F Biofilm (dots: Disruption Biofilm Assay) ([2]; Table D, 0.1 to 5.0%) | Reduce or Inhibit F Biofilm (dots: Disruption Biofilm Assay) [2, 9] | Reduce or Inhibit B Biofilm (dots: Disruption Biofilm Assay) ([3]; Table D, 0.1 to 5.0%) | Reduce or Inhibit B Biofilm (dots: Disruption Biofilm Assay) [3, 9] | Reduce Both (squares: Inhibition Biofilm Assay) [4, 8] | Reduce Both (squares: Inhibition Biofilm Assay) [4, 9] | Reduce or Inhibit F Biofilm (squares: Inhibition Biofilm Assay) ([5]; Table D, 0.1 to 5.0%) | Reduce or Inhibit F Biofilm (squares: Inhibition Biofilm Assay) [5, 9] | Reduce or Inhibit B Biofilm (squares: Inhibition Biofilm Assay) ([6]; Table D, 0.1 to 5.0%) | Reduce or Inhibit B Biofilm (squares: Inhibition Biofilm Assay) [6, 9] | effect on fungal biofilm (in words) (fungal biofilm) | effect on bacterial and fungal biofilm (in words) [7] | concentration of maximum (ideal) antibiofilm effect [7] | ideal concentration for antibiofilm effect ([7]; in the absence of glycerol on in vitro testing) | effect on bacterial and fungal biofilm (in words) ([7]; listed as Aspartic acid)
N[C@@H](CS)C(=O)O [Cysteine, L-cysteine] | ●● (Two dots [ie. ●●] signifies a major effect (greater than about 50%), on the Disruption Biofilm Assay) | ●● (Two dots [ie. ●●] signifies a major effect (greater than about 50%), on the Disruption Biofilm Assay) | antibacterial biofilm effect | ●● (Two dots [ie. ●●] signifies a major effect (greater than about 50%), on the Disruption Biofilm Assay) | ●● (Two dots [ie. ●●] signifies a major effect (greater than about 50%), on the Disruption Biofilm Assay) | ●● (Two dots [ie. ●●] signifies a major effect (greater than about 50%), on the Disruption Biofilm Assay) | ●● (Two dots [ie. ●●] signifies a major effect (greater than about 50%), on the Disruption Biofilm Assay) | ▪▪ (Two squares [ie. ▪▪] signifies a major effect (greater than about 50%), on the Inhibition Biofilm Assay) | ▪▪ (Two squares [ie. ▪▪] signifies a major effect (greater than about 50%), on the Inhibition Biofilm Assay) | ▪▪ (Two squares [ie. ▪▪] signifies a major effect (greater than about 50%), on the Inhibition Biofilm Assay) | ▪▪ (Two squares [ie. ▪▪] signifies a major effect (greater than about 50%), on the Inhibition Biofilm Assay) | ▪▪ (Two squares [ie. ▪▪] signifies a major effect (greater than about 50%), on the Inhibition Biofilm Assay) | ▪▪ (Two squares [ie. ▪▪] signifies a major effect (greater than about 50%), on the Inhibition Biofilm Assay) | antifungal biofilm effects | potent antibiofilm effect; also recorded: strong antibiofilm effect; also recorded: activity against both bacterial and fungal biofilm | 0.5% |  | 
N[C@@H](CC(=O)O)C(=O)O [Aspartic Acid, L-aspartic acid] | ●● (Two dots [ie. ●●] signifies a major effect (greater than about 50%), on the Disruption Biofilm Assay) | ●● (Two dots [ie. ●●] signifies a major effect (greater than about 50%), on the Disruption Biofilm Assay) | antibacterial biofilm effect | ●● (Two dots [ie. ●●] signifies a major effect (greater than about 50%), on the Disruption Biofilm Assay) | ●● (Two dots [ie. ●●] signifies a major effect (greater than about 50%), on the Disruption Biofilm Assay) | ●● (Two dots [ie. ●●] signifies a major effect (greater than about 50%), on the Disruption Biofilm Assay) | ●● (Two dots [ie. ●●] signifies a major effect (greater than about 50%), on the Disruption Biofilm Assay) | ▪▪ (Two squares [ie. ▪▪] signifies a major effect (greater than about 50%), on the Inhibition Biofilm Assay) | ▪▪ (Two squares [ie. ▪▪] signifies a major effect (greater than about 50%), on the Inhibition Biofilm Assay) | ▪▪ (Two squares [ie. ▪▪] signifies a major effect (greater than about 50%), on the Inhibition Biofilm Assay) | ▪▪ (Two squares [ie. ▪▪] signifies a major effect (greater than about 50%), on the Inhibition Biofilm Assay) | ▪▪ (Two squares [ie. ▪▪] signifies a major effect (greater than about 50%), on the Inhibition Biofilm Assay) | ▪▪ (Two squares [ie. ▪▪] signifies a major effect (greater than about 50%), on the Inhibition Biofilm Assay) | antifungal biofilm effects | very active against both bacterial and fungal biofilm | 0.5% | 0.5 g % | strong effect on biofilm-forming bacteria and fungi in reducing biofilm formation
